The values that follow come from patent US6849416B2, “Monoclonal antibody” (priority 2001, dated 2005).

Series [1] deals with human APP751Sw transgenic H4 neuroglioma cell line (released Aβ peptides). Description: Treatment of APP751Sw transgenic H4 neuroglioma cells with protease inhibitors, Aβ peptides released into supernatant. The following applies: for Aβ1-40, Aβ1-42, Aβ1-37/38/39 and Aβ2-42 released into cell culture supernatant: versus DMSO control. The format is cell-based. The protocol: FIG. 27: two Aβ SDS-PAGE/immunoblots 2 which show a treatment of a human 751APPSw trangenic H4 neuroglioma cell line with various protease inhibitors (23a) and a dose-dependent effect of calpain inhibitor 1 (23b). The released Aβ peptides were quantified in 4 μl of SDS/thermally denatured cell culture supernatants in each case (cf. FIGS. 23a,b). For comparison, the sAPPα concentration in the cell culture supernatants was determined.
In panel a: (1) is DMSO control; (2) is 50 μM calpain inhibitor 1; (3) is 100 μM calpain inhibitor 3; (4) is 5 μM MG132; (5) is 25 μM calpeptin; (a-d) is mix of synthetic Aβ peptides.
The released Aβ peptides were quantified in 4 μl of SDS/thermally denatured cell culture supernatants in each case. The dose-dependent effect of calpain inhibitor 1 on the Aβ peptide concentration in the supernatant was investigated, comparing with the DMSO control.
The released Aβ peptides were quantified in 4 μl of SDS/thermally denatured cell culture supernatants in each case. The dose-dependent effect of calpain inhibitor 1 on the proportion of an Aβ peptide species as a percentage of the total Aβ peptide concentration was investigated, comparing with the DMSO control.
If the samples are in liquid form (e.g. cell culture supernatants, cell homogenates) and if the Aβ peptide concentration is sufficiently high it is possible to take up one volume unit of sample with one volume unit of the double concentrated SDS-SB-2 (table 3).
A comparative investigation was carried out on the Aβ peptide pattern in neuroglioma cells (H4) which have been transfected with humanAPP751Sw. […] Aβ2-42 can also be indentified. After treatment with inhibitors of β/γ-secretases (calpain inhibitor I&II, calpeptin, MG132, leupeptin), besides Aβ1-40 and Aβ1-42 there is also a reduction in the C-terminally truncated Aβ peptides 1-37/38/39 and the N-terminally truncated Aβ2-42 (FIGS. 28a,b).

A short description of series [2]: Aβ IPG 2D-PAGE of synthetic Aβ peptides (isoelectric point). The format is physicochemical. Conditions: IPG pH 4-7. The protocol: The samples are taken up in IPG-SB (table 5a). Dry substance and Dynabeads magnetically immobilized by means of MSP (see below) are taken up directly with the IPG-SB immediately before IEF and incubated in an ultrasonic bath at 37° C. for 10 min. Taking up of liquid biological samples: after removal of the mixed bed ion exchanger (Serdolit MB-1), the IPB-SB is divided into aliquots (e.g. 100 μl) in Eppendorf sample vessels and concentrated to the dry substance at room temperature using a SpeedVac. The IPG-SB introduced as dry substance is taken up with sample with the ratio 1:1 by volume (e.g. 100 μl) and, after a vortex step (1 min.), incubated in an ultrasonic bath at 37° C. for 10 min.
The IEF using commercial IPG “[…]” took place in accordance with the manufacturer's protocol (Amersham Pharmacia Biotech/brief instructions 71-5009-57, edition AA, 99-04). IPG “[…]” (4-7, linear pH gradient, length 7 cm) were rehydrogenated to a gel thickness of 0.5 mm using the rehydrogenation solution from table 5a at room temperature overnight. The sample loading device (“sample cups”) is placed on the basic side of the IPG strips, at about pH 6.5 (cathodic loading) and 30 μl of sample is loaded. The IPG-IEF takes place for 30 min/300V, 30 min/800V, 30 min./1400V and 5 h/2000V ([…]).
The IPG-IEF is followed by equilibration of the “[…]” for 2×10 min. (table 5b). The first equilibration solution contains DTT (50 mg/5 ml), the second solution iodoacetamide (240 mg/5 ml) for neutralization of excess DTT, which otherwise leads to color artefacts on silver staining of the gels. The second equilibration step is unnecessary for the Western immunoblot. The equilibrated IPG “[…]” are fixed on the stacking gel of the Aβ SDS-PAGE using agarose solution (table 5c). A sample well for loading synthetic Aβ peptides or Mr marker proteins for comparison is made in the hot agarose using a Teflon tooth. The electrophoresis takesplace in accordance with 3.1.2.

The nature of series [3]: Cryoprecipitation of synthetic peptide dissolved in water. It counts as physicochemical. Conditions: dissolved with comparable concentration in water, freezing. The source says:
This makes it probable that the reduction caused by cryoprecipitation in Aβ1-42 in human CSF derives predominantly from the aggregate-bound proportion of the peptide. In the case of comparatively hydrophobic aggregates—for example lipoprotein-containing complexes—a loss through cryoprecipitation would not be surprising. In this connection, it is shown hereinafter (4.2.4) that ε4-positive patients in the NDC-3CP group show a particularly high rate of CP-related reduction in Aβ1-42 and have CSF levels which are approximately as low as ε4-positive AD-3CP patients.

Where a SMILES comes first, the peptide text is derived from it. [ ]: non-standard residue; d: D form. The star is where a group is joined. Nle = CCCC[C@H](N)C(=O)O; Cbz = O=C(OCc1ccccc1)*

Turning to `CC(C)C[C@@H](C=O)NC(=O)[C@H](CC(C)C)NC(=O)[C@H](CC(C)C)NC(=O)OCc1ccccc1` [MG132] (Cbz-Leu-Leu-Leu-aldehyde), the “Aβ1-40, Aβ1-42, Aβ1-37/38/39 and Aβ2-42 released into cell culture supernatant” value in series [1] is “reduction”.

As to `CCCC[C@@H](C=O)NC(=O)[C@H](CC(C)C)NC(=O)[C@H](CC(C)C)NC(C)=O` [calpain inhibitor 1] (Ac-Leu-Leu-[Nle]-aldehyde), in series [1] (low inhibitor concentration), the “Aβ1-42 concentration at low concentration of the protease inhibitor” value is “initial (paradoxical) increase” and the “Aβ2-42 concentration in relation to the increase in Aβ1-42” value is given as “did not correlate with an increase”. Besides, in series [1], the “Aβ1-40, Aβ1-42, Aβ1-37/38/39 and Aβ2-42 released into cell culture supernatant” value is on record as “dose-dependent reduction”. Besides, the “Aβ1-40, Aβ1-42, Aβ1-37/38/39 and Aβ2-42 released into cell culture supernatant” value in series [1] (listed as calpain inhibitor I) is on record as “reduction”.

On to `CSCC[C@@H](C=O)NC(=O)[C@H](CC(C)C)NC(=O)[C@H](CC(C)C)NC(C)=O` [calpain inhibitor II] (Ac-Leu-Leu-Met-aldehyde), for which, in series [1], the “Aβ1-40, Aβ1-42, Aβ1-37/38/39 and Aβ2-42 released into cell culture supernatant” value is given as “reduction”.

For `CCCC[C@@H](C=O)NC(=O)[C@H](CC(C)C)NC(=O)OCc1ccccc1` [calpeptin], in series [1], the “Aβ1-40, Aβ1-42, Aβ1-37/38/39 and Aβ2-42 released into cell culture supernatant” value was “reduction”.

On to `CC(=O)N[C@@H](CC(C)C)C(=O)N[C@@H](CC(C)C)C(=O)N[C@H](C=O)CCCNC(=N)N` [leupeptin], for which, in series [1], the “Aβ1-40, Aβ1-42, Aβ1-37/38/39 and Aβ2-42 released into cell culture supernatant” value was “reduction”.

Regarding “Aβ1-42: synthetic β-amyloid peptide 1-42 (Bachem)”, in series [2], the isoelectric point worked out at 5.37. The “cryoprecipitation compared with Aβ1-42 in human CSF” value in series [3] was “distinctly less cryoprecipitation”.

Regarding “Aβ2-40: synthetic β-amyloid peptide 2-40, lacking N-terminal aspartate”, the isoelectric point in series [2] is given as 6.37.

Turning to “Aβ3-40: synthetic β-amyloid peptide 3-40”, the isoelectric point in series [2] amounted to 6.37.
